Columns and labels:
Format in all cases: in vivo
Conditions in all cases: 312 h, rate 250 g/ha, evaluated after 13 days, 100=total damage to plant, 0=no damage to plant
[1] = system: Alopecurus myosuroides (ALOMY); test: Pre-emergence herbicidal activity, glasshouse pot test
Procedure: (§1) Seeds of a variety of test species were sown in standard soil in pots. After cultivation for one day (pre-emergence) or after 8 days cultivation (post-emergence) under controlled conditions in a glasshouse (at 24/16° C., day/night; 14 hours light; 65% humidity), the plants were sprayed with an aqueous spray solution derived from the formulation of the technical active ingredient in acetone/water (50:50) solution containing 0.5% Tween 20 (polyoxyethelyene sorbitan monolaurate, CAS RN 9005-64-5). The test plants were then grown in a glasshouse under controlled conditions in a glasshouse (at 24/16° C., day/night; 14 hours light; 65% humidity) and watered twice daily. After 13 days for pre and post-emergence, the test was evaluated (100=total damage to plant; 0=no damage to plant). Test Plants: Lolium perenne (LOLPE), Alopecurus myosuroides (ALOMY), Echinochloa crus-galli (ECHCG), and Avena fatua (AVEFA). Pre-Emergence Activity

Avena fatua (AVEFA) [2] = test: as above
Procedure: as §1

[3] = system: Echinochloa crus-galli (ECHCG); test: as above
Procedure: as §1

Lolium perenne (LOLPE) [4] = test: as above
Procedure: as §1

[5] = system: Alopecurus myosuroides (ALOMY); test: Post-emergence herbicidal activity, glasshouse pot test
Procedure: as §1, with “Post-Emergence” for “Pre-Emergence”

Avena fatua (AVEFA) [6] = test: as above
Procedure: as §1, with “Post-Emergence” for “Pre-Emergence”

[7] = system: Echinochloa crus-galli (ECHCG); test: as above
Procedure: as §1, with “Post-Emergence” for “Pre-Emergence”

Lolium perenne (LOLPE) [8] = test: as above
Procedure: as §1, with “Post-Emergence” for “Pre-Emergence”

Row | Structure (SMILES) | pest or weed control at 250 g/ha [1] [%] | pest or weed control at 250 g/ha (Avena fatua (AVEFA) [2]) [%] | pest or weed control at 250 g/ha [3] [%] | pest or weed control at 250 g/ha (Lolium perenne (LOLPE) [4]) [%] | pest or weed control at 250 g/ha [5] [%] | pest or weed control at 250 g/ha (Avena fatua (AVEFA) [6]) [%] | pest or weed control at 250 g/ha [7] [%] | pest or weed control at 250 g/ha (Lolium perenne (LOLPE) [8]) [%]
1 | CCc1ccc(Oc2cnc3cc(Cl)ccc3n2)cc1C1=C(O)CCC1=O [Compound A-18] | 50 | 50 | 80 | 70 | 90 | 90 | 100 | 70
2 | CCc1ccc(Oc2ccc(Br)cc2F)cc1C1=C(O)[C@H]2[C@H]3CC[C@H](C3)[C@H]2C1=O [Compound A-27] | 20 | 0 | 60 | 40 | 60 | 70 | 80 | 80
3 | CCc1ccc(Oc2ccc(Cl)c(F)c2)cc1C1=C(O)CCC1=O [Compound A-41] | 0 | 0 | 30 | 0 | 0 | 10 | 70 | 20
4 | CCc1ccc(Oc2nc3ccccc3s2)cc1C1=C(O)[C@H]2[C@H]3CC[C@H](C3)[C@H]2C1=O [Compound A-12] | 60 | 30 | 70 | 70 | 100 | 50 | 100 | 70
5 | CCc1ccc(Oc2cnc3ccc(Br)cc3n2)cc1C1=C(O)C2C(C1=O)[C@H]1CC[C@@H]2CC1 (some centres unmarked) [Compound A-93] | 10 | 0 | 100 | 60 | 60 | 60 | 100 | 50
6 | CCc1ccc(Oc2ccc(OC(F)(F)F)cc2)cc1C1=C(O)[C@H]2[C@@H](C1=O)[C@@H]1CC[C@H]2O1 [Compound A-50] | 100 | 100 | 100 | 100 | 100 | 100 | 100 | 100
7 | CCc1ccc(Oc2ncc(C(F)(F)F)cc2C(F)(F)F)cc1C1=C(O)CCC1=O [Compound A-71] | 90 | 80 | 100 | 100 | 100 | 100 | 100 | 100
8 | CCc1ccc(Oc2ccc(Cl)cc2F)cc1C1=C(O)[C@H]2[C@@H](C1=O)[C@@H]1CC[C@H]2O1 [Compound A-6] | 100 | 90 | 100 | 100 | 80 | 90 | 100 | 90
9 | CCc1ccc(Oc2ccc(C#N)cc2)cc1C1=C(O)C2C(C1=O)[C@H]1CC[C@@H]2CC1 (some centres unmarked) [Compound A-15] | 30 | 0 | 100 | 10 | 30 | 30 | 80 | 30
10 | CCc1ccc(Oc2cnc3cc(Cl)ccc3n2)cc1C1=C(O)[C@H]2[C@@H](C1=O)[C@@H]1CC[C@H]2O1 [Compound A-51] | 100 | 90 | 90 | 100 | 100 | 90 | 90 | 100

Reference: patent publication US8895474B2, “Herbicidally active cyclopentanediones and derivatives thereof, and their use in controlling weeds” (Syngenta Limited, priority 2009, dated 2014)
